Experimental data from PMC3625477 (Journal of acquired immune deficiency syndromes (1999), 2013).
Several values for one entry are separate records, joined by “and”; a condition that tells them apart may be missing. Equal entries are not always repeated. Where two headings read alike, the source gives them in different places.

Columns and labels:
[1] = Total; type: in vivo, HIV-infected pregnant women; details: for concentration at 12 h / AUC(0-t) / Cmax: plasma; for concentration at 12 h: oral, C12h; for AUC(0-t) / Cmax: po; for AUC(0-t): AUC0–12h
[2] = type: in vivo, HIV-infected pregnant women; details: for concentration at 12 h / AUC(0-t) / Cmax: female, human, plasma; for concentration at 12 h: oral, C12h; for concentration at 12 h / AUC(0-t) / Cmax / C12h / Cl: protein unbound, median; for AUC(0-t) / Cmax: po; for AUC(0-t): AUC0–12h
[3] = system: wild-type virus; details: total lopinavir; cited from earlier work
[4] = system: wild type virus (HIV); details: unbound lopinavir; cited from earlier work
[5] = system: blood plasma proteins albumin and alpha-1-acid-glycoprotein (AAG); details: cited from earlier work
[6] = 8 wks postpartum (PK4), LPV/RTV 400mg/100mg twice daily
[7] = 20–24 wks (PK1), LPV/RTV 400mg/100mg twice daily
[8] = 30 wks (PK2), LPV/RTV 400mg/100mg twice daily
[9] = 32 wks (PK3), LPV/RTV 500mg/125mg twice daily
[10] = female, human, total (bound + unbound), 8 wks postpartum (PK4), LPV/RTV 400mg/100mg twice daily, median
[11] = female, human, total (bound + unbound), 20–24 wks (PK1), LPV/RTV 400mg/100mg twice daily, median
[12] = female, human, total (bound + unbound), 30 wks (PK2), LPV/RTV 400mg/100mg twice daily, median
[13] = female, human, total (bound + unbound), 32 wks (PK3), LPV/RTV 500mg/125mg twice daily, median
[14] = total (bound + unbound), 8 wks postpartum (PK4), LPV/RTV 400mg/100mg twice daily, median
[15] = total (bound + unbound), 20–24 wks (PK1), LPV/RTV 400mg/100mg twice daily, median
[16] = total (bound + unbound), 30 wks (PK2), LPV/RTV 400mg/100mg twice daily, median
[17] = total (bound + unbound), 32 wks (PK3), LPV/RTV 500mg/125mg twice daily, median

Cc1cccc(C)c1OCC(=O)N[C@@H](Cc1ccccc1)[C@@H](O)C[C@H](Cc1ccccc1)NC(=O)[C@H](C(C)C)N1CCCNC1=O [Lopinavir, lopinavir]
postpartum total C12h higher than at any point during pregnancy ([1]; female, human, in vivo, 12 h): 38–80% | women with total lopinavir C12h below 4 µg/mL ([1]; second trimester, standard-dose LPV/RTV, 12 participants): 33% | increase in protein-unbound AUC0–12h with the increased dose ([2]; PK2 vs PK3): < 15% | share of all unbound concentrations below the wild type IC50 of 0.00064 µg/mL ([2]; all visits): Less than 2% | concentration at 12 h [2, 6]: 160 ng/mL | concentration at 12 h [2, 7]: 150 ng/mL | concentration at 12 h [2, 8]: 100 ng/mL | concentration at 12 h [2, 9]: 120 ng/mL | AUC(0-t) [2, 6]: 2600 ng·h/mL | AUC(0-t) [2, 7]: 1600 ng·h/mL | AUC(0-t) [2, 8]: 1600 ng·h/mL | AUC(0-t) [2, 9]: 1800 ng·h/mL | Cmax [2, 6]: 280 ng/mL | Cmax [2, 7]: 180 ng/mL | Cmax [2, 8]: 210 ng/mL | Cmax [2, 9]: 240 ng/mL | C12h [2, 6]: 160 ng/mL | Cl [2, 6]: 92 L/h | C12h [2, 7]: 150 ng/mL | Cl [2, 7]: 123 L/h | C12h [2, 8]: 100 ng/mL | Cl [2, 8]: 155 L/h | C12h [2, 9]: 120 ng/mL | Cl [2, 9]: 131 L/h | minimum effective concentration [3]: 1 µg/mL | protein-unbound IC50 (50% inhibitory concentration) [4]: 0.64 ng/mL and 0.64 to 0.77 ng/mL

CC(C)c1nc(CN(C)C(=O)N[C@H](C(=O)N[C@@H](Cc2ccccc2)C[C@H](O)[C@H](Cc2ccccc2)NC(=O)OCc2cncs2)C(C)C)cs1 [Ritonavir, ritonavir]
concentration at 12 h [1, 10]: 280 ng/mL | concentration at 12 h [1, 11]: 120 ng/mL | concentration at 12 h [1, 12]: 120 ng/mL | concentration at 12 h [1, 13]: 150 ng/mL | AUC(0-t) [1, 11]: 2500 ng·h/mL | AUC(0-t) [1, 12]: 2300 ng·h/mL | AUC(0-t) [1, 13]: 2400 ng·h/mL | Cmax [1, 10]: 620 ng/mL | Cmax [1, 11]: 350 ng/mL | Cmax [1, 12]: 300 ng/mL | Cmax [1, 13]: 360 ng/mL | AUC0–12h [1, 14]: 5200 ng·h/mL | C12h [1, 14]: 280 ng/mL | Cl (apparent oral clearance) [1, 14]: 12 L/h | C12h [1, 15]: 120 ng/mL | Cl (apparent oral clearance) [1, 15]: 29 L/h | C12h [1, 16]: 120 ng/mL | Cl (apparent oral clearance) [1, 16]: 33 L/h | C12h [1, 17]: 150 ng/mL | Cl (apparent oral clearance) [1, 17]: 37 L/h | concentration at 12 h [2, 6]: 30 ng/mL | concentration at 12 h [2, 7]: 20 ng/mL | concentration at 12 h [2, 8]: 20 ng/mL | concentration at 12 h [2, 9]: 20 ng/mL | AUC(0-t) [2, 6]: 500 ng·h/mL | AUC(0-t) [2, 7]: 400 ng·h/mL | AUC(0-t) [2, 9]: 300 ng·h/mL | Cmax [2, 6]: 80 ng/mL | Cmax [2, 7]: 60 ng/mL | Cmax [2, 8]: 50 ng/mL | Cmax [2, 9]: 50 ng/mL | Cl [2, 6]: 127 L/h | Cl [2, 7]: 169 L/h | Cl [2, 8]: 261 L/h | Cl [2, 9]: 306 L/h | bound to the blood plasma proteins [5]: 98–99%
